Test results: US20150147403A1, “DERMATOLOGICAL COMPOSITION COMPRISING OLEOSOMES AND RETINOIDS, PROCESS FOR PREPARING THE SAME AND USE THEREOF” (GALDERMA RESEARCH & DEVELOPMENT, priority 2012, published 2015)

Assays:
Assay type in all cases: physicochemical
[1] = Solubility of compound A in various oily and aqueous solvents
Text: (§1) The object of this preformulation study is to identify lipophilic and hydrophilic solvents in which compound A is soluble, and in which it is chemically stable.

[2] = Stability of compound A in solvents (HPLC-UV); conditions: RT / 40° C.
Procedure: as §1
The stability of the active agent was evaluated by liquid chromatography coupled to a UV detector (HPLC-UV).

[3] = Stability study on compositions 1′ and 2: assay of compound A by HPLC; conditions: under all the temperature conditions (4° C., RT, 40° C.); dissolved in the aqueous phase or in the oily liquid globules
Procedure: Composition 1′ of Example 2 and composition 2 of Example 3 were placed under various stability conditions: 4° C., room temperature and 40° C., for 3 months.
Compound A was assayed by HPLC. The results are expressed in mg/g.

[4] = in Caprylic/capric acid triglycerides (Miglyol 812N)
[5] = in PPG-15 stearyl ether (Arlamol E PSE15)
[6] = in Propylene glycol / absolute ethanol (20/80)

Structure (SMILES): CC(C)(C)c1cc(-c2cc(-c3ccc(C(=O)O)cc3)ccc2OCCO)ccc1N1CCCC1 [Compound A, 3″-tert-Butyl-4′-(2-hydroxyethoxy)-4″-pyrrolidin-1-yl-[1,1′;3′,1″]-terphenyl-4-carboxylic acid]
- Maximum solubility (% m/m) ([1]; in Absolute ethanol): 0.92 % m/m
- Maximum solubility (% m/m) [1, 4]: 0.019 % m/m
- Maximum solubility (% m/m) [1, 5]: 0.292 % m/m
- Maximum solubility (% m/m) ([1]; in Phenoxyethanol): 1.957 % m/m
- Maximum solubility (% m/m) ([1]; in Propylene glycol): 0.11 % m/m
- Maximum solubility (% m/m) [1, 6]: 1.08 % m/m
- Stability ([2]; in Absolute ethanol): 3 months RT / 40 °C
- Stability [2, 4]: 6 months RT / 40 °C
- Stability [2, 5]: 6 months RT / 40 °C
- Stability ([2]; in Phenoxyethanol): 6 months RT / 40 °C
- Stability [2, 6]: 6 months RT / 40 °C
- Stability ([2]; in Propylene glycol): 3 months RT / 40 °C
- Chemical stability of compound A in the compositions [3]: 3 months
